Measurements as given in ChEMBL document CHEMBL1201862, “PubChem BioAssay data set” (2004).
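Values below derive from 48-hour exposures of cells grown in 96-well plates, with endpoints linearly interpolated between the two concentrations bracketing the appropriate inhibition level. Here, GI50 denotes the concentration required for 50% inhibition of growth.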 Calls of active or inactive are those of the source. Cut-off read from the data, not from the text of the source: active = GI50 up to about 1.1 µM and inactive = higher.

Columns and labels:
Assay in all cases: inhibition of tumour cell growth, NCI panel, 48 h
M14 = tested on: M14
NCI/ADR-RES = tested on: NCI/ADR-RES
A498 = tested on: A498
HOP-62 = tested on: HOP-62
OVCAR-3 = tested on: OVCAR-3
EKVX = tested on: EKVX
UO-31 = tested on: UO-31
OVCAR-5 = tested on: OVCAR-5
SR = tested on: SR
ACHN = tested on: ACHN
A549 = tested on: A549
MOLT-4 = tested on: MOLT-4
HT-29 = tested on: HT-29
UACC-257 = tested on: UACC-257
U-251 = tested on: U-251
HCC 2998 = tested on: HCC 2998
K562 = tested on: K562
SK-MEL-2 = tested on: SK-MEL-2
SF-268 = tested on: SF-268
T47D = tested on: T47D

Row | Structure (SMILES) | GI50 (M14) | GI50 (NCI/ADR-RES) | GI50 (A498) | GI50 (HOP-62) | GI50 (OVCAR-3) | GI50 (EKVX) | GI50 (UO-31) | GI50 (OVCAR-5) | GI50 (SR) | GI50 (ACHN) | GI50 (A549) | GI50 (MOLT-4) | GI50 (HT-29) | GI50 (UACC-257) | GI50 (U-251) | GI50 (HCC 2998) | GI50 (K562) | GI50 (SK-MEL-2) | GI50 (SF-268) | GI50 (T47D)
1 | CNC(=O)OCc1nc(SC(C)C)n(C)c1COC(=O)NC | > 100 µM (inactive) | > 100 µM (inactive) | > 100 µM (inactive) | > 100 µM (inactive) | > 100 µM (inactive) | > 100 µM (inactive) | > 100 µM (inactive) | > 100 µM (inactive) | > 100 µM (inactive) | > 100 µM (inactive) | > 100 µM (inactive) | 44.8 µM (inactive) | > 100 µM (inactive) | > 100 µM (inactive) | > 100 µM (inactive) | > 100 µM (inactive) | > 69.8 µM (inactive) | > 100 µM (inactive) | > 91.6 µM (inactive) | –
2 | Cc1cn2c(/C=N/NC(=N)N)c(-c3ccc(Cl)c([N+](=O)[O-])c3)nc2s1 | 1.63 µM (inactive) | > 28.5 µM (inactive) | 0.07 µM (active) | 1.54 µM (inactive) | 1.13 µM (inactive) | 0.776 µM (active) | 1.88 µM (inactive) | 1.17 µM (inactive) | – | 1.76 µM (inactive) | 1.61 µM (inactive) | – | 0.55 µM (active) | 0.178 µM (active) | 0.268 µM (active) | – | 0.257 µM (active) | 0.647 µM (active) | 1.23 µM (inactive) | –
3 | Oc1ccc(-c2c3c(nc4c2CCc2ccc(Br)cc2-4)-c2cc(Br)ccc2CC3)cc1 | 23.9 µM (inactive) | 23 µM (inactive) | 23.4 µM (inactive) | 17.2 µM (inactive) | 15.1 µM (inactive) | 22 µM (inactive) | 18.7 µM (inactive) | 18 µM (inactive) | – | 20.7 µM (inactive) | 19.8 µM (inactive) | – | – | 27 µM (inactive) | 17.5 µM (inactive) | 20.7 µM (inactive) | – | 16.8 µM (inactive) | 21.7 µM (inactive) | 21.2 µM (inactive)
4 | COc1ccc(/C=C2\CC3C4CC=C5C[C@@H](O)CC[C@]5(C)C4CC[C@]3(C)C2=O)cc1OC (some centres undefined) | 65 µM (inactive) | 45 µM (inactive) | 28.6 µM (inactive) | 44 µM (inactive) | 5.09 µM (inactive) | 28.2 µM (inactive) | 14.8 µM (inactive) | 43.5 µM (inactive) | – | 24.5 µM (inactive) | 27.9 µM (inactive) | 20 µM (inactive) | 31.8 µM (inactive) | 13 µM (inactive) | 26.2 µM (inactive) | 14.9 µM (inactive) | 12.5 µM (inactive) | 24.2 µM (inactive) | 64.7 µM (inactive) | 8.28 µM (inactive)
5 | COc1ccccc1NC(=O)C1=C(C)NC(C)=C(C(=O)Nc2ccccc2OC)C1c1ccccc1F | > 100 µM (inactive) | – | > 100 µM (inactive) | > 100 µM (inactive) | > 100 µM (inactive) | 50.2 µM (inactive) | 62.7 µM (inactive) | > 100 µM (inactive) | 64.7 µM (inactive) | 51.6 µM (inactive) | 57.4 µM (inactive) | 49.2 µM (inactive) | 91.4 µM (inactive) | > 100 µM (inactive) | 90.8 µM (inactive) | > 100 µM (inactive) | 36.2 µM (inactive) | 55.8 µM (inactive) | > 100 µM (inactive) | –
6 | COC(=O)Nc1nc2cc(S(=O)(=O)NC(CC(C)C)C(=O)OC)ccc2[nH]1 (centres undefined) | 1.8 µM (inactive) | 6.08 µM (inactive) | 3.13 µM (inactive) | 3.48 µM (inactive) | 0.721 µM (active) | 3.93 µM (inactive) | 5.96 µM (inactive) | 3.87 µM (inactive) | – | 11.1 µM (inactive) | 7.29 µM (inactive) | 3.67 µM (inactive) | 2.81 µM (inactive) | – | 4.12 µM (inactive) | – | 3.06 µM (inactive) | 8.83 µM (inactive) | 10.8 µM (inactive) | 4.19 µM (inactive)
7 | NC(=O)Cn1c(=O)oc2cc(C(=O)CN3CCOCC3)ccc21 | > 100 µM (inactive) | > 100 µM (inactive) | > 100 µM (inactive) | > 100 µM (inactive) | > 100 µM (inactive) | > 100 µM (inactive) | – | > 100 µM (inactive) | > 100 µM (inactive) | – | – | > 100 µM (inactive) | > 100 µM (inactive) | – | > 100 µM (inactive) | – | > 100 µM (inactive) | > 100 µM (inactive) | > 100 µM (inactive) | –
8 | CC(=O)NC1C(OCc2ccccc2)OC(COC(=O)CCCCCCCCCCNC(=O)CCNc2ccc([N+](=O)[O-])c3[nH]c4ccc(O)cc4c(=O)c23)C(O)C1OC(C)C(=O)N[C@H](C(=O)N[C@H](CCC(=O)O)C(N)=O)C(C)C (some centres undefined) | 48.5 µM (inactive) | – | 69.8 µM (inactive) | > 100 µM (inactive) | 84.9 µM (inactive) | 96.8 µM (inactive) | 55.2 µM (inactive) | 54.3 µM (inactive) | 20 µM (inactive) | 60.7 µM (inactive) | > 100 µM (inactive) | 43.2 µM (inactive) | 56.2 µM (inactive) | > 100 µM (inactive) | 44.4 µM (inactive) | 23.8 µM (inactive) | 76.9 µM (inactive) | 28.8 µM (inactive) | > 100 µM (inactive) | –
9 | O=C1CCC2(c3ccc(Cl)cc3)Nc3ncncc3N12 (centres undefined) | > 10 µM (inactive) | > 10 µM (inactive) | – | – | > 10 µM (inactive) | > 10 µM (inactive) | > 10 µM (inactive) | > 10 µM (inactive) | – | > 10 µM (inactive) | > 10 µM (inactive) | > 10 µM (inactive) | > 10 µM (inactive) | > 10 µM (inactive) | > 10 µM (inactive) | > 10 µM (inactive) | > 10 µM (inactive) | > 10 µM (inactive) | > 10 µM (inactive) | –
10 | Cc1cccc2nc3c(=O)[nH]c(=O)nc-3n(C)c12 | 37.8 µM (inactive) | 82.2 µM (inactive) | – | 79.6 µM (inactive) | 28 µM (inactive) | > 100 µM (inactive) | – | > 100 µM (inactive) | – | > 100 µM (inactive) | 84.7 µM (inactive) | 43 µM (inactive) | 33.2 µM (inactive) | 34.4 µM (inactive) | 86.5 µM (inactive) | 86.1 µM (inactive) | 46.6 µM (inactive) | 48.8 µM (inactive) | 50.4 µM (inactive) | 53.3 µM (inactive)
11 | CCn1c2ccccc2c2cc(/N=N\c3ccc(C#N)cc3)ccc21 | 25.9 µM (inactive) | – | 25.8 µM (inactive) | 28 µM (inactive) | > 100 µM (inactive) | 33.3 µM (inactive) | 75.7 µM (inactive) | 31.6 µM (inactive) | – | > 100 µM (inactive) | 26.9 µM (inactive) | > 100 µM (inactive) | 26.5 µM (inactive) | 58.9 µM (inactive) | 29.8 µM (inactive) | – | – | > 100 µM (inactive) | 54.7 µM (inactive) | 50.6 µM (inactive)
12 | C=C1c2nc3ccccc3n2C=C(c2ccc(OC)cc2)N1c1ccc(OC)cc1 | 39.8 µM (inactive) | 5.26 µM (inactive) | 17.9 µM (inactive) | – | 8.18 µM (inactive) | 25.5 µM (inactive) | 12.5 µM (inactive) | 65.5 µM (inactive) | 12.8 µM (inactive) | 7.16 µM (inactive) | 21.3 µM (inactive) | > 100 µM (inactive) | – | 34 µM (inactive) | 9.71 µM (inactive) | 20 µM (inactive) | > 100 µM (inactive) | 29.3 µM (inactive) | – | –
13 | CC(C)OP(=O)(c1ccccc1)c1ccc2c(c1)OCCOCCOCCOCCO2 (centres undefined) | – | – | > 100 µM (inactive) | > 100 µM (inactive) | – | > 100 µM (inactive) | > 100 µM (inactive) | – | – | > 100 µM (inactive) | > 100 µM (inactive) | > 100 µM (inactive) | > 100 µM (inactive) | > 100 µM (inactive) | – | > 100 µM (inactive) | > 100 µM (inactive) | – | > 100 µM (inactive) | > 100 µM (inactive)
14 | Cc1nc(OCc2ccccc2)c2ncn(CCO)c2n1 | > 100 µM (inactive) | > 100 µM (inactive) | > 100 µM (inactive) | – | > 100 µM (inactive) | – | > 100 µM (inactive) | > 100 µM (inactive) | > 100 µM (inactive) | > 100 µM (inactive) | > 100 µM (inactive) | > 100 µM (inactive) | > 100 µM (inactive) | > 100 µM (inactive) | > 100 µM (inactive) | – | – | > 100 µM (inactive) | > 100 µM (inactive) | –
15 | O=C1/C(=C/c2ccc(Cl)cc2)NC(=S)N1CN1CCOCC1 | > 100 µM (inactive) | > 100 µM (inactive) | 57.3 µM (inactive) | > 100 µM (inactive) | > 100 µM (inactive) | > 100 µM (inactive) | > 100 µM (inactive) | > 100 µM (inactive) | – | > 100 µM (inactive) | > 100 µM (inactive) | > 100 µM (inactive) | > 100 µM (inactive) | > 100 µM (inactive) | > 100 µM (inactive) | – | > 100 µM (inactive) | > 100 µM (inactive) | > 100 µM (inactive) | –
16 | CSCC[C@H]1C(=O)N=C(N)N1C(=O)OCc1ccccc1 | – | 30.8 µM (inactive) | 72.9 µM (inactive) | > 100 µM (inactive) | 38.7 µM (inactive) | 53.6 µM (inactive) | 30.8 µM (inactive) | > 100 µM (inactive) | 17.8 µM (inactive) | 34.7 µM (inactive) | – | 18.7 µM (inactive) | 38.3 µM (inactive) | 40.6 µM (inactive) | 34.9 µM (inactive) | 95.9 µM (inactive) | 21.8 µM (inactive) | > 100 µM (inactive) | 38.4 µM (inactive) | –
